Results as given in paper PMC9271885 (eBioMedicine, 2022).
“And” between values parts separate entries of the source, which are not always exact repeats. Equal entries are not always repeated.

System: SARS-CoV-2
Experiment: Hamster model of SARS-CoV-2 infection, oral NTZ treatment (lung infectious titers, lung viral RNA yields, plasma viral loads)
Type: in vivo, Syrian hamsters
Design: Lung Infectious titers / Plasmatic viral RNA yields / Lung Viral RNA yields: unit not given here
Details: for Lung Infectious titers / Lung Viral RNA yields / Plasmatic viral RNA yields: inoculum 104 TCID50, Figure 3, individual animals
[1] = NTZ 500mg/kg/day BID oral for 3 days, 3 dpi
[2] = NTZ 500mg/kg/day BID oral for 4 days, 5 dpi
[3] = NTZ 750mg/kg/day TID oral for 3 days, 3 dpi
[4] = Nitazoxanide per os 500mg/kg/day BID, sacrifice day 3
[5] = Nitazoxanide per os 500mg/kg/day BID, sacrifice day 5
[6] = Nitazoxanide per os 750mg/kg/day BID, sacrifice day 3

Q: How did the “infectious titers in clarified lung homogenates vs untreated animals” value (shortened to “infectious titers … vs untreated animals”) [1] turn out when `CC(=O)Oc1ccccc1C(=O)Nc1ncc([N+](=O)[O-])s1` [NTZ, Nitazoxanide] was run?
A: no significant differences

Q: And the “viral RNA yields in clarified lung homogenates vs untreated animals” value [1]?
A: no significant differences

Q: What about the “viral RNA yields in plasma vs untreated animals” value [1] of the same compound?
A: No significant difference

Q: What about the “infectious titers … vs untreated animals” value [2] of the same compound?
A: no significant reduction

Q: What about the “viral RNA yields in clarified lung homogenates vs untreated animals” value [2] of the same compound?
A: no significant reduction

Q: What about the “viral RNA yields in plasma vs untreated animals” value [2] of the same compound?
A: no significant reduction

Q: And the “infectious titers … vs untreated animals” value [3]?
A: no significant differences

Q: And the “viral RNA yields in clarified lung homogenates vs untreated animals” value [3]?
A: no significant differences

Q: And the “viral RNA yields in plasma vs untreated animals” value [3]?
A: No significant difference

Q: And the “Lung Infectious titers” value [4]?
A: 8.038 and 8.250 and 7.442 and 7.772 and 7.773 and 7.077

Q: What about the “Lung Viral RNA yields” value [4] of the same compound?
A: 8.641

Q: And the “Plasmatic viral RNA yields” value [4]?
A: 5.553 and 4.360 and 4.045 and 4.724 and 5.043 and 5.205

Q: What about the “Lung Viral RNA yields” value [5] of the same compound?
A: 7.115 and 6.597 and 6.910

Q: What about the “Plasmatic viral RNA yields” value [5] of the same compound?
A: 3.987 and 3.600 and 3.442 and 4.487 and 3.519

Q: What about the “Lung Infectious titers” value (Nitazoxanide per os 500mg/kg/day BID, sacrifice day 5, § : considered at 60 TCID50/mL (detection threshold)) of the same compound?
A: ≤ 2.486 § and 4.354 and 4.491 and 5.007 and 3.086

Q: What about the “Lung Infectious titers” value [6] of the same compound?
A: 7.345 and 6.869 and 7.090 and 6.311 and 7.103 and 7.069

Q: And the “Lung Viral RNA yields” value [6]?
A: 8.692

Q: What about the “Plasmatic viral RNA yields” value [6] of the same compound?
A: 3.193 and 2.818 and 5.191 and 4.129 and 4.008 and 4.113
